Assays:
Plasmodium falciparum [1] = test: Antimalarial activity against chloroquine-resistant Plasmodium falciparum K1 incubated for 72 hrs by SYBR green I dye based fluorescence analysis; format: functional, organism-based; conditions: K1, 72 h
[2] = Selectivity index, ratio of IC50 for cytotoxicity against African green monkey Vero cells to IC50 for antimalarial activity against Plasmodium falciparum W2; format: toxicity, cell-based; conditions: Vero cells versus Plasmodium falciparum W2, read-out: Ratio IC50
Plasmodium falciparum [3] = test: Antimalarial activity against chloroquine-sensitive ring stage Plasmodium falciparum 3D7 infected in erythrocytes assessed as reduction in parasite growth measured at 48 hrs interval by Giemsa staining based microscopic analysis; format: functional, organism-based; conditions: 3D7, Erythrocyte
Plasmodium falciparum [4] = test: Antimalarial activity against chloroquine-resistant ring stage Plasmodium falciparum K1 infected in erythrocytes assessed as reduction in parasite growth measured at 48 hrs interval by Giemsa staining based microscopic analysis; format: functional, organism-based; conditions: K1, Erythrocyte
[5] = Cytotoxicity against human WRL68 cells assessed as reduction in cell viability incubated for 72 hrs by MTT assay; format: toxicity, cell-based
[6] = Selectivity index, ratio of IC50 for cytotoxicity against human WRL68 cells to IC50 for antimalarial activity against Plasmodium falciparum 3D7 infected in erythrocytes; format: toxicity, cell-based; conditions: WRL68 cells versus Plasmodium falciparum 3D7 in erythrocytes, read-out: Ratio IC50
[7] = Selectivity index, ratio of IC50 for cytotoxicity against human WRL68 cells to IC50 for antimalarial activity against Plasmodium falciparum K1 infected in erythrocytes; format: toxicity, cell-based; conditions: WRL68 cells versus Plasmodium falciparum K1 in erythrocytes, read-out: Ratio IC50
Plasmodium falciparum [8] = test: Resistance index, ratio of IC50 for antimalarial activity against chloroquine resistant Plasmodium falciparum K1 infected in erythrocytes to IC50 for antimalarial activity against chloroquine sensitive Plasmodium falciparum 3D7 infected in erythrocytes; format: functional
Plasmodium falciparum [9] = test: Antimalarial activity against Plasmodium falciparum NF54 incubated for 48 hrs by NBT reagent based assay; format: functional, organism-based; conditions: NF54, 48 h

With `Clc1ccc2c(NCCn3cncc3C3CCCC3)ccnc2c1` the IC50 (Plasmodium falciparum [1]) was 340 nM.

In the case of `O=C1c2ccc(N3CCN(CCO)CC3)cc2C(=O)N1CCCNc1ccnc2cc(Cl)ccc12`, the selectivity ratio [2] is reported as > 4200.

With `CCOC(=O)c1nn(CCNc2ccnc3cc(Cl)ccc23)c2c1C(c1ccccc1)C(C#N)=C(N)O2` (stereo not drawn) the IC50 (Plasmodium falciparum [3]) was 19 nM, the IC50 (Plasmodium falciparum [4]) was 419 nM and the IC50 at 72 h [5] was 81500 nM. For the same compound, the selectivity ratio [6] was 4360, the selectivity ratio [7] was 195 and the “Ratio IC50” value (Plasmodium falciparum [8]) was 22.39.

With `CCOC(=O)c1nn(CCNc2ccnc3cc(Cl)ccc23)c2c1C(c1ccc(O)cc1)C(C#N)=C(N)O2` (stereo not drawn) the IC50 (Plasmodium falciparum [3]) was 15 nM, the IC50 (Plasmodium falciparum [4]) was 2750 nM and the IC50 at 72 h [5] was 48600 nM. For the same compound, the selectivity ratio [6] was 3200, the selectivity ratio [7] was 18 and the “Ratio IC50” value (Plasmodium falciparum [8]) was 180.66.

`CCOC(=O)c1nn(CCNc2ccnc3cc(Cl)ccc23)c2c1C(c1ccco1)C(C#N)=C(N)O2` (stereo not drawn) gave an IC50 (Plasmodium falciparum [3]) of 25 nM, an IC50 (Plasmodium falciparum [4]) of 207 nM and an IC50 at 72 h [5] of 47600 nM. For the same compound, the selectivity ratio [6] was 1920, the selectivity ratio [7] was 230 and the “Ratio IC50” value (Plasmodium falciparum [8]) was 8.34.

With `CCOC(=O)c1nn(CCNc2ccnc3cc(Cl)ccc23)c2c1C(c1cccc([N+](=O)[O-])c1)C(C#N)=C(N)O2` (stereo not drawn) the IC50 (Plasmodium falciparum [3]) was 28 nM, the IC50 (Plasmodium falciparum [4]) was 106 nM and the IC50 at 72 h [5] was 35400 nM. The selectivity ratio [6] was 1260, the selectivity ratio [7] was 333 and the “Ratio IC50” value (Plasmodium falciparum [8]) was 3.8.

Work on `CCOC(=O)c1nn(CCNc2ccnc3cc(Cl)ccc23)c2c1C(c1ccc(O)c(Br)c1)C(C#N)=C(N)O2` (stereo not drawn) yielded an IC50 (Plasmodium falciparum [3]) of 23 nM, an IC50 (Plasmodium falciparum [4]) of 232 nM and an IC50 at 72 h [5] of 61600 nM. For the same compound, the selectivity ratio [6] was 2650, the selectivity ratio [7] was 265 and the “Ratio IC50” value (Plasmodium falciparum [8]) was 10.

For `CCOC(=O)c1nn(CCNc2ccnc3cc(Cl)ccc23)c2c1C(c1cccc(O)c1)C(C#N)=C(N)O2` (stereo not drawn), the IC50 (Plasmodium falciparum [3]) was 17 nM, the IC50 (Plasmodium falciparum [4]) was 1340 nM and the IC50 at 72 h [5] was 68600 nM. For the same compound, the selectivity ratio [6] was 3960, the selectivity ratio [7] was 51 and the “Ratio IC50” value (Plasmodium falciparum [8]) was 77.46.

For `CCOC(=O)c1nn(CCNc2ccnc3cc(Cl)ccc23)c2c1C(c1ccc(OC)cc1)C(C#N)=C(N)O2` (stereo not drawn), the IC50 (Plasmodium falciparum [3]) was 21 nM, the IC50 (Plasmodium falciparum [4]) was 254 nM and the IC50 at 72 h [5] was 131000 nM. The selectivity ratio [6] was 6220, the selectivity ratio [7] was 514 and the “Ratio IC50” value (Plasmodium falciparum [8]) was 12.1.

In the case of `CCOC(=O)c1nn(CCNc2ccnc3cc(Cl)ccc23)c2c1C(c1c(O)ccc3ccccc13)C(C#N)=C(N)O2` (stereo not drawn), the IC50 (Plasmodium falciparum [3]) is reported as 301 nM, the IC50 (Plasmodium falciparum [4]) is reported as 20 nM and the IC50 at 72 h [5] is reported as 6690 nM. The selectivity ratio [6] was 22, the selectivity ratio [7] was 334 and the “Ratio IC50” value (Plasmodium falciparum [8]) was 0.07.

Work on `CCOC(=O)c1nn(CCNc2ccnc3cc(Cl)ccc23)c2c1C(c1cccs1)C(C#N)=C(N)O2` (stereo not drawn) yielded an IC50 (Plasmodium falciparum [3]) of 23 nM, an IC50 (Plasmodium falciparum [4]) of 37 nM and an IC50 at 72 h [5] of 59500 nM. The selectivity ratio [6] was 2570, the selectivity ratio [7] was 1590 and the “Ratio IC50” value (Plasmodium falciparum [8]) was 1.62.

With `CCOC(=O)c1nn(CCNc2ccnc3cc(Cl)ccc23)c2c1C(c1ccc(C#N)cc1)C(C#N)=C(N)O2` (stereo not drawn) the IC50 (Plasmodium falciparum [3]) was 19 nM, the IC50 (Plasmodium falciparum [4]) was 37 nM and the IC50 at 72 h [5] was > 183000 nM. The selectivity ratio [6] was > 9450, the selectivity ratio [7] was > 4920 and the “Ratio IC50” value (Plasmodium falciparum [8]) was 1.92.

Compound `CCOC(=O)c1nn(CCNc2ccnc3cc(Cl)ccc23)c2c1C(c1ccc(OCC)cc1)C(C#N)=C(N)O2` (stereo not drawn) has an IC50 (Plasmodium falciparum [3]) of 24 nM, an IC50 (Plasmodium falciparum [4]) of 86 nM and an IC50 at 72 h [5] of 6980 nM. For the same compound, the selectivity ratio [6] was 290, the selectivity ratio [7] was 81 and the “Ratio IC50” value (Plasmodium falciparum [8]) was 3.57.

`CCOC(=O)c1nn(CCNc2ccnc3cc(Cl)ccc23)c2c1C(c1ccc([N+](=O)[O-])cc1)C(C#N)=C(N)O2` (stereo not drawn) gave an IC50 (Plasmodium falciparum [3]) of 110 nM, an IC50 (Plasmodium falciparum [4]) of 294 nM and an IC50 at 72 h [5] of 56900 nM. For the same compound, the selectivity ratio [6] was 563, the selectivity ratio [7] was 193 and the “Ratio IC50” value (Plasmodium falciparum [8]) was 2.92.

With `CCOC(=O)c1nn(CCNc2ccnc3cc(Cl)ccc23)c2c1C(c1cccc(OCC)c1)C(C#N)=C(N)O2` (stereo not drawn) the IC50 (Plasmodium falciparum [3]) was 68 nM, the IC50 (Plasmodium falciparum [4]) was 26 nM and the IC50 at 72 h [5] was 20900 nM. The selectivity ratio [6] was 308, the selectivity ratio [7] was 815 and the “Ratio IC50” value (Plasmodium falciparum [8]) was 0.38.

Work on `CCOC(=O)c1nn(CCNc2ccnc3cc(Cl)ccc23)c2c1C(c1ccc(Cl)cc1)C(C#N)=C(N)O2` (stereo not drawn) yielded an IC50 (Plasmodium falciparum [3]) of 26 nM, an IC50 (Plasmodium falciparum [4]) of 48 nM and an IC50 at 72 h [5] of 12100 nM. The selectivity ratio [6] was 467, the selectivity ratio [7] was 252 and the “Ratio IC50” value (Plasmodium falciparum [8]) was 1.85.

In the case of `CCOC(=O)c1nn(CCNc2ccnc3cc(Cl)ccc23)c2c1C(c1ccccn1)C(C#N)=C(N)O2` (stereo not drawn), the IC50 (Plasmodium falciparum [3]) is reported as 21 nM, the IC50 (Plasmodium falciparum [4]) is reported as 24 nM and the IC50 at 72 h [5] is reported as 90500 nM. The selectivity ratio [6] was 4350, the selectivity ratio [7] was 3780 and the “Ratio IC50” value (Plasmodium falciparum [8]) was 1.15.

`CCOC(=O)c1nn(CCNc2ccnc3cc(Cl)ccc23)c2c1C(c1ccc(O)cc1O)C(C#N)=C(N)O2` (stereo not drawn) showed an IC50 (Plasmodium falciparum [3]) of 19 nM, an IC50 (Plasmodium falciparum [4]) of 250 nM and an IC50 at 72 h [5] of 23200 nM. For the same compound, the selectivity ratio [6] was 1220, the selectivity ratio [7] was 93 and the “Ratio IC50” value (Plasmodium falciparum [8]) was 13.13.

For `CCOC(=O)c1nn(CCNc2ccnc3cc(Cl)ccc23)c2c1C(c1ccccc1OC)C(C#N)=C(N)O2` (stereo not drawn), the IC50 (Plasmodium falciparum [3]) was 15 nM, the IC50 (Plasmodium falciparum [4]) was 592 nM and the IC50 at 72 h [5] was 26100 nM. The selectivity ratio [6] was 1730, the selectivity ratio [7] was 44 and the “Ratio IC50” value (Plasmodium falciparum [8]) was 39.18.

In the case of `CCOC(=O)c1nn(CCNc2ccnc3cc(Cl)ccc23)c2c1C(c1ccc(C(=O)O)cc1)C(C#N)=C(N)O2` (stereo not drawn), the IC50 (Plasmodium falciparum [3]) is reported as 38 nM, the IC50 (Plasmodium falciparum [4]) is reported as 210 nM and the IC50 at 72 h [5] is reported as 86500 nM. The selectivity ratio [6] was 2280, the selectivity ratio [7] was 411 and the “Ratio IC50” value (Plasmodium falciparum [8]) was 5.53.

`CCOC(=O)c1nn(CCNc2ccnc3cc(Cl)ccc23)c2c1C(c1ccc(Br)cc1)C(C#N)=C(N)O2` (stereo not drawn) gave an IC50 (Plasmodium falciparum [3]) of 33 nM, an IC50 (Plasmodium falciparum [4]) of 19 nM and an IC50 at 72 h [5] of 5850 nM. The selectivity ratio [6] was 178, the selectivity ratio [7] was 309 and the “Ratio IC50” value (Plasmodium falciparum [8]) was 0.58.

In the case of `O=C(/C=C/c1ccccc1Br)c1ccc(S(=O)(=O)NCCCNc2ccnc3cc(Cl)ccc23)cc1`, the IC50 (Plasmodium falciparum [9]) is reported as 100 nM.

For `CCN(CC)CCCC(C)Nc1ccnc2cc(Cl)ccc12` (stereo not drawn) [CHLOROQUINE PHOSPHATE], the IC50 at 72 h [5] was 60600 nM.
